Experimental data published in US20230158104A1, “COMPOUNDS FOR USE IN AUTOIMMUNE CONDITIONS” (priority 2020, published 2023).
Several values for one entry are separate records, joined by “and”; a condition that tells them apart may be missing. Equal values may be shown once. Entries after “also recorded” stand apart in the source; their conditions may differ. Read-outs that look alike come from different tables or passages of the source. Marks after values point to notes of the source that are not given here.

Experiments:
alveolar macrophages = conditions: mice, plitidepsin 1 mg/kg i.v. with LPS 20 μg/kg i.p., three hours
NF-κB = NF-κB transactivation luciferase assay; assay type: cell-based, human; conditions: 100 nM plitidepsin, 6 hours, with poly I:C, LPS-B5 or Resiquimod; THP-1 NF-κB-Luc cells
Procedure: Luminescence was measured in a Perkin-Elmer EnVision reader.

[1] = Pharmacokinetics, plasma and lung, mouse
[2] = tested on: cytokine secretion induced by Resiquimod in THP-1 cells; experiment: Plitidepsin pre-treatment of THP-1 NFκB luc cells before Resiquimod stimulus; assay type: cell-based, human; conditions: 1, 10 or 50 nM added 8 hours before Resiquimod 2.5 or 5 μg/mL; measured at 24 hours
Procedure: At 0 time THP-1 cells were treated with 1 nM, 10 nM or 50 nM APL or DMSO (0.2%) followed by stimulus with Resiquimod at 2.5 or 5 μg/mL at 8 hours. At 24 hours cytokines or cell viability was measured.
In a further in vitro experiment, the effect of plitidepsin (APL) pre-treatment on THP-1 cells was studied. Using a THP-1 NFκB luc line, 1, 10 or 50 nM of APL or DMSO (0.2%) was added 8 hours before stimulus with Resiquimod (RQ) at 2.5 or 5 μg/mL. RQ is a TLR7/8 agonist and mimics ssRNA. At 24 hours the level of cytokines or cell viability was measured.

THP-1 cells = experiment: MTT cell proliferation assay (cytotoxicity control); assay type: cell-based, human; conditions: activators combined with 100 nM plitidepsin, 6 hours
[3] = tested on: resiquimod (RQ)-trigged cytokine secretion in BALF; experiment: Resiquimod intranasal inflammation model, TNFα in BALF; conditions: mice 1 mg/kg i.v. 1 hour before Resiquimod 50 μg/mouse intranasal; 1 or 3 hours after RQ
Procedure: We further checked whether plitidepsin inhibits resiquimod (RQ)-trigged cytokine secretion in BALF. Mice were injected i.v. with plitidepsin (1 mg/kg) or vehicle 1 hour before a 50 μg/mouse intranasal inoculation with resiquimod. At 1 or 3 hours after intranasal administration of RQ bronchoalveolar lavage fluid (BALF) was collected. Cells were plated and secreted cytokines were measured.
In another inflammation model, mice were randomized into groups of two animals to receive the treatments. Mice were challenged with plitidepsin (1 mg/kg) intra venous (i.v.) followed by Resiquimod (50 μg/mouse, intranasal) 1 hour latter. The control group received plitidepsin vehicle (Cremophor/Ethanol/Water) diluted with saline. One and 3 hours later, animals were euthanized, bronchoalveolar lavage collected (a total of 1.2 ml, PBS) and then, TNFα quantified by ELISA kits.

[4] = tested on: LPS-trigged cytokine secretion in alveolar macrophages; experiment: Ex vivo LPS-B5-triggered cytokine secretion in bronchoalveolar lavage cells of treated mice; conditions: mice 1 mg/kg i.v.
Procedure: To that end mice were injected i.v. with plitidepsin (1 mg/kg) or vehicle and 12 hours after administration bronchoalveolar lavage fluid (BAL) was collected. Cells were plated and treated ex-vivo or not with 15 μg/mL of LPS-B5 for 3 or 6 hours and secreted cytokines were measured.
Mice were randomized into groups of five animals to receive the treatments. Mice were injected intra venous (i.v.) with plitidepsin (1 mg/kg) and 12 hours after administration were euthanized. Control group received plitidepsin vehicle diluted with saline (Cremophor/Ethanol/Water). Bronchoalveolar lavage fluid (BAL) of each group was collected and centrifugated to obtain bronchoalveolar lavage cells. Cells underwent red blood cell lysis (Roche) and were plated and treated ex-vivo or not with 15 μg/mL of LPS-B5 for 3 or 6 hours. Secreted cytokines were measured using highly specific and sensitive ELISA kits. Mouse IL-6, mouse IL-10 and mouse TNF DuoSet ELISA kits were obtained from R&D Systems and performed as described by the manufacturer.

[5] = Pharmacokinetics in patients; assay type: in vivo, Human
[6] = tested on: TLR-trigged cytokine secretion in THP-1 cells; experiment: ELISA assays for secreted cytokines, TLR ligands combined with plitidepsin; conditions: 100 nM plitidepsin with TLR ligands, 6 hours, THP-1, ELISA
Procedure: To investigate whether plitidepsin inhibits the TLR-trigged cytokine secretion, we treated THP-1 cells with 100 ng/mL TNFα (an activator of NF-κB), 500 μg/mL poly I:C (TLR3 ligand), 10 μg/mL LPS-B5 (TLR4 ligand) or 10 μg/mL Resiquimod (TLR-7/8 ligand). The compounds were used either alone (grey bars) or combined with 100 nM of plitidepsin (red bars) for 6 hours. We compared the variations in cytokine secretion in the cell culture supernatants between the different treatments by ELISA assays.
THP1-NFκB-LUC cell cultures were treated as described above, and the culture medium was sampled at 6 hours post-treatment to assay for secreted cytokines by ELISA. Media samples were stored at 4-C. IL-8, IL-1β, IL-6 and TNFα protein secretion into culture medium was quantitated using highly specific and sensitive ELISA kits. Human IL-lb, human IL-6, human IL-8 and human TNF OptEIA™ ELISA kits were obtained from BD Biosciences and performed as described by the manufacturer. The data presented are the average of three independent experiments performed in triplicate.

COVID-19 = assay type: in vivo, human
Procedure: All patients received the following prophylactic medications 20-30 minutes before the infusion of plitidepsin: • Diphenhydramine hydrochloride 25 mg iv or equivalent. • Ranitidine 50 mg iv or equivalent. • Dexamethasone 6.6 mg intravenous. • Ondansetron 8 mg i.v. in slow infusion of 15 minutes or equivalent.
Patients included in the study will receive treatment for 3 days.

[7] = Stability of plitidepsin drug product and reconstituted solution; assay type: physicochemical
Procedure: Plitidepsin will be labelled with the study protocol code, the batch number, the content, the expiry date, the storage conditions, the name of the investigator and the sponsor. The study drug will be labelled in accordance with Annex 13 of the European Good Manufacturing Practices. Plitidepsin should be stored between 2° C. and 8° C. and the vials should be kept in the outer carton to protect them from light. The drug in these conditions is stable for 60 months.
After reconstitution of the 2 mg plitidepsin vial with 4 ml of the solution for reconstitution of macrogolglycerol ricinoleate/ethanol/water for injection, the reconstituted solution should be diluted and used immediately after preparation. If not used immediately, storage times and conditions until use are the responsibility of the user. […] If storage is required before administration, solutions should be stored refrigerated and protected from light and should be used within 24 hours after reconstitution.

[8] = Pharmacokinetics, plasma and lung, rat; conditions: rats, single intravenous dose 0.2 mg/kg
[9] = Pharmacokinetics, plasma and lung, hamster; conditions: hamsters, single intravenous dose 0.2 mg/kg
[10] = Mouse (F) C57BL6/J, 1.0 mg/kg single intravenous bolus, plasma
[11] = BAL cells 12 hours after, ex vivo 15 μg/mL LPS-B5 for 3 or 6 hours, listed as plitidepsin, 1 mg/kg
[12] = Human (M/F), 0.135 mg/kg (Recommended Dose 5 mg/m2, 3-h intravenous infusion)
[13] = Human, 0.02 mg/kg (1.5 mg/patient), following 3 daily doses, estimated from population PK model
[14] = individual patients, PLD 2.0 mg×3

Question: With “(−)-(3S,6R,7S,10R,11S,15S,17S,20S,25aS)-11-hydroxy-3-(4-methoxybenzyl)-2,6,17-trimethyl-15-(1-methylethyl)-7-[[(2R)-4-methyl-2-[methyl[[(2S)-1-(2-oxopropanoyl)pyrrolidin-2-yl]carbonyl]amino]pentanoyl]amino]-10-[(1S)-1-methylpropyl]-20-(2-methylpropyl)tetradecahydro-15H-pyrrolo[2,1-f]-[1,15,4,7,10,20]dioxatetrazacyclotricosine-1,4,8,13,16,18,21(17H)-heptone [PLD]” as the substance, how does the “cytotoxic effects (CD45+ alive cells in bronchoalveolar lavage)” value (alveolar macrophages) read?
Answer: without cytotoxic effects

Question: What about the “percentage of macrophages present in bronchoalveolar lavage” value (alveolar macrophages) of the same substance?
Answer: decrease

Question: What about the “production of luciferase (NF-κB transactivation)” value (NF-κB) of the same substance?
Answer: clearly inhibited

Question: What about the “AUC0-∞” value [1, 10] of the same substance?
Answer: 225.3 ng·h/mL

Question: And the Cl [1, 10]?
Answer: 73.3 mL/min/kg

Question: And the Cmax [1, 10]?
Answer: 50.7 ng/mL

Question: What about the Vdss [1, 10] of the same substance?
Answer: 101.8 L7 kg

Question: And the t1/2 [1, 10]?
Answer: 18.2 h

Question: What about the “Maximum Tolerated Dose” value ([1]; Mouse (F) C57BL6/J, single intravenous bolus) of the same substance?
Answer: 1.0^a mg/kg

Question: And the “lung-to-plasma ratio (lungAUC0-∞/plasmaAUC0-∞)” value (from here on “lung-to-plasma ratio”) ([1]; mice, single intravenous dose 1.0 mg/kg)?
Answer: 133

Question: What about the “secretion of IL1β” value [2] of the same substance?
Answer: inhibited

Question: And the “secretion of IL6” value [2]?
Answer: inhibited

Question: And the “secretion of IL8” value [2]?
Answer: inhibited

Question: What about the “secretion of TNF-α” value [2] of the same substance?
Answer: inhibited

Question: And the “Survival (MTT assay), cytotoxic effect” value (THP-1 cells)?
Answer: No cytotoxic effect

Question: What about the “production of TNFα in BALF” value [3] of the same substance?
Answer: prevented the increased production

Question: And the “secretion of IL-10 induced by LPS-B5” value ([4]; BAL cells 12 hours after, ex vivo 15 μg/mL LPS-B5 for 3 or 6 hours)?
Answer: significantly reduce

Question: And the “secretion of IL-6 induced by LPS-B5” value [4, 11]?
Answer: clearly inhibited; also recorded: significantly reduce

Question: What about the “secretion of TNFα induced by LPS-B5” value [4, 11] of the same substance?
Answer: clearly inhibited; also recorded: significantly reduce

Question: And the “cell viability of CD45+ cells from bronco-alveolar lavages” value ([4]; LPS-B5 ex vivo)?
Answer: unrelated to cell viability

Question: And the “AUC0-∞” value [5, 12]?
Answer: 256.0 ng·h/mL

Question: And the Cl [5, 12]?
Answer: 12 to 15 mL/min/kg

Question: What about the Cmax [5, 12] of the same substance?
Answer: 29.1 ng/mL

Question: And the Vdss [5, 12]?
Answer: 29-33 L7 kg

Question: What about the t1/2 [5, 12] of the same substance?
Answer: 20 to 80 h

Question: What about the “AUC0-∞” value [5, 13] of the same substance?
Answer: 174.0^d ng · h/mL

Question: What about the Cmax [5, 13] of the same substance?
Answer: 8.5^d ng/mL

Question: What about the “production of IL-1” value [6] of the same substance?
Answer: clearly inhibited

Question: What about the “production of IL-6” value [6] of the same substance?
Answer: clearly inhibited

Question: And the “production of IL-8” value [6]?
Answer: clearly inhibited

Question: What about the “production of TNFα” value [6] of the same substance?
Answer: clearly inhibited

Question: And the tolerability (COVID-19; 45 patients, 1.5, 2.0 and 2.5 mg daily for 3 days, all 3 dose cohorts)?
Answer: well tolerated

Question: And the “Hospital discharge by day” value (COVID-19; [14])?
Answer: ≤ 10 days and ≤ 8 days

Question: What about the “PCR COVID 19 test converted to negative by day” value (COVID-19; [14]) of the same substance?
Answer: ≤ 15 day and ≤ 7 day and still positive at day 7

Question: What about the clinical outcome (COVID-19; [14]) of the same substance?
Answer: major clinical improvement

Question: And the “patients discharged by Day 15” value (COVID-19; mild disease, across dose cohorts (9/9))?
Answer: 100%

Question: What about the “patients discharged by Day 15” value (COVID-19; moderate disease, across dose cohorts (23/28)) of the same substance?
Answer: 82%

Question: What about the “Bilateral pneumonia resolved by day” value (COVID-19; patient 5, PLD 1.5 mg×3) of the same substance?
Answer: ≤ 6 days

Question: What about the C-reactive protein (COVID-19; patient 5, PLD 1.5 mg×3) of the same substance?
Answer: acute fall is seen by day 2

Question: What about the C-reactive protein (COVID-19; patients 7 and 9, PLD 2.0 mg×3) of the same substance?
Answer: acute fall is seen by day 3

Question: What about the “patients discharged by Day 15” value (COVID-19; severe disease, across dose cohorts (4/7)) of the same substance?
Answer: 57%

Question: And the “physical, chemical and microbiological stability of reconstituted concentrated solution” value ([7]; original vial under indoor light at room temperature)?
Answer: 6 hours

Question: What about the “physical, chemical and microbiological stability of reconstituted concentrated solution” value ([7]; refrigerated conditions (5° C.±3° C.)) of the same substance?
Answer: 24 hours

Question: What about the “stability of the drug (2 mg vial, powder)” value ([7]; stored between 2° C. and 8° C., in outer carton protected from light) of the same substance?
Answer: 60 months

Question: And the “lung-to-plasma ratio” value [8]?
Answer: 460

Question: And the “lung-to-plasma ratio” value [9]?
Answer: 909
